Laboratory results: patent publication US11478474B2, “2-(3′-(hydroxymethyl)-1-methyl-5-((5-(2-methyl-4-(oxetan-3-yl)piperazin-1-yl)pyridin-2-yl)amino)-6-oxo-1,6-dihydro-[3,4′-bipyridin]-2′-yl)-7,7-dimethyl-7,8-dihydro-2H-cyclopenta[4,5]pyrrolo[1,2-a]pyrazin-1(6H)-one as a BTK inhibitor” (HUTCHISON MEDIPHARMA LIMITED, priority 2020, dated 2022)

Columns and labels:
BTK recombinant protein = BTK recombinant protein (Homo sapiens (Human), UniProt Q06187); experiment: Determination of biochemical BTK (Z'-LYTE kinase assay)
BTK recombinant protein, sequence (Q06187 whole entry): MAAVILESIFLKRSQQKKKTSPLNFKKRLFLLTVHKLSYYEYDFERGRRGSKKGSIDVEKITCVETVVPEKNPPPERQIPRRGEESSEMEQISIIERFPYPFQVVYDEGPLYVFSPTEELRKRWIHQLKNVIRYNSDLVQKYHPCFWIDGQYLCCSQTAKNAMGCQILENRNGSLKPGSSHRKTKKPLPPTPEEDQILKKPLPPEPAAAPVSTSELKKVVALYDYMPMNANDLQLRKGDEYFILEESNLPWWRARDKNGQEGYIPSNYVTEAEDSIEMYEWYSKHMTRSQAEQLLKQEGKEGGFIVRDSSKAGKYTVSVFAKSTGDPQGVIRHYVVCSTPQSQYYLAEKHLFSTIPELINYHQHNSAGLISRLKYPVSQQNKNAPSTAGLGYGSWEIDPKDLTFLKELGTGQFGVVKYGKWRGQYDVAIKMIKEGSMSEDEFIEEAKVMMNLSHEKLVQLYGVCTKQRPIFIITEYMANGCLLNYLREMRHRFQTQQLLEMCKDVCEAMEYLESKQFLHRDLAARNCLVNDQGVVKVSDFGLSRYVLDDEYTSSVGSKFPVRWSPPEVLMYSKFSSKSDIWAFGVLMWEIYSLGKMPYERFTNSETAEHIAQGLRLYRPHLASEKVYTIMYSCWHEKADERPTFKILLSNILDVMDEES
In short: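 Human BTK recombinant kinase (3.32 nM final) was preincubated with compound for 30 min at 4 °C. Reaction ran 1 h at room temperature with Tyr01 FRET peptide (2 μM) and ATP (32 μM); development protease then added. Coumarin 445 nm/fluorescein 520 nm emission ratio (400 nm excitation) gave inhibition across 8 concentrations, 3000–1.37 nM.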

[1] = target: phosphorylated BTK in Ramos cells (Homo sapiens (Human), UniProt Q06187); experiment: Determination of phosphorylated BTK in Ramos cells (BTK phospho-Y223 HTRF); type: cell-based; conditions: anti-human IgM + hydrogen peroxide stimulation
phosphorylated BTK in Ramos cells, sequence (Q06187 whole entry): as above
In short: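 BTK Y223 phosphorylation measured by HTRF (665/615 nm) in lysates of Ramos cells. Cells were serum-starved 2 h, exposed to compound for 1 h (final 0.00018–3.0 μM, 0.3% DMSO), then stimulated 10 min with 10 μg/mL anti-IgM and 3.3 mM H2O2. IC50 derived from percent inhibition between unstimulated and stimulated controls.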

Row | IC50 (BTK recombinant protein) | IC50 [1] | SMILES
1 | 8 nM | 13 nM | COCc1cc(Nc2cc(-c3ccnc(-n4ccn5c6c(cc5c4=O)CC(C)(C)C6)c3CO)cn(C)c2=O)nn1C [Compound 154]
2 | 6 nM | 12 nM | Cn1cc(-c2ccnc(-n3ncn4c5c(cc4c3=O)CC(C)(C)C5)c2CO)cc(Nc2cc3n(n2)CCOC3)c1=O [Compound 156]
3 | 16 nM | 25 nM | C[C@H]1CN(C2COC2)CCN1c1ccc(Nc2cc(-c3ccnc(-n4ncn5c6c(cc5c4=O)CCCC6)c3CO)cn(C)c2=O)nc1 [Compound 157]
4 | 6 nM | 26 nM | COC1CN(c2ccc(Nc3cc(-c4ccnc(-n5ccn6c7c(cc6c5=O)CC(C)(C)C7)c4CO)cn(C)c3=O)nn2)C1 [Compound 159]
5 | 4 nM | 7 nM | C[C@H]1CN(C2COC2)CCN1c1ccc(Nc2cc(-c3ccnc(-n4ccn5c6c(c(F)c5c4=O)CCCC6)c3CO)cn(C)c2=O)nc1 [Compound 161]
6 | 1 nM | 6 nM | Cn1cc(-c2ccnc(-n3ccn4c5c(cc4c3=O)CC(C)(C)C5)c2CO)cc(Nc2cc3n(n2)CCOC3)c1=O [Compound 162]
7 | 8 nM | 34 nM | COCCN1CCn2nc(Nc3cc(-c4ccnc(-n5ncn6c7c(cc6c5=O)CCCC7)c4CO)cn(C)c3=O)cc2C1 [Compound 163]
8 | 12 nM | 23 nM | Cc1nn(-c2nccc(-c3cc(Nc4cc5n(n4)CCN(C4COC4)C5)c(=O)n(C)c3)c2CO)c(=O)c2cc3c(n12)CC(C)(C)C3 [Compound 164]
9 | 4 nM | 31 nM | CCN1CCn2nc(Nc3cc(-c4ccnc(-n5ncn6c7c(cc6c5=O)CC(C)(C)C7)c4CO)cn(C)c3=O)cc2C1 [Compound 165]
10 | 35 nM | 121 nM | Cn1cc(-c2ccnc(-n3ncn4c5c(cc4c3=O)CCCC5)c2CO)cc(Nc2cc3n(n2)CCN(C2COC2)C3)c1=O [Compound 166]
11 | 16 nM | 12 nM | COCCN1CCn2nc(Nc3cc(-c4ccnc(-n5ccn6c7c(c(F)c6c5=O)CCCC7)c4CO)cn(C)c3=O)cc2C1 [Compound 167]
12 | 28 nM | 20 nM | COCCN1CCn2nc(Nc3cc(-c4ccnc(-n5ccn6c7c(cc6c5=O)CC(C)C7)c4CO)cn(C)c3=O)cc2C1 (stereo not shown) [Compound 168]
13 | 60 nM | 30 nM | COc1ccc(Nc2cc(-c3ccnc(-n4ccn5c6c(cc5c4=O)CC(C)(C)C6)c3CO)cn(C)c2=O)nn1 [Compound 169]
14 | 18 nM | 16 nM | Cn1cc(-c2ccnc(-n3ncn4c5c(cc4c3=O)CC(C)(C)C5)c2CO)cc(Nc2cc3n(n2)CCN(C2CCC2)C3)c1=O [Compound 170]
15 | 13 nM | 11 nM | Cn1cc(-c2ccnc(-n3ncn4c5c(cc4c3=O)CC(C)(C)C5)c2CO)cc(Nc2cc3n(n2)CCN(C2CC2)C3)c1=O [Compound 171]
16 | 41 nM | 11 nM | CCn1cc(Nc2cc(-c3ccnc(-n4ccn5c6c(cc5c4=O)CC(C)(C)C6)c3CO)cn(C)c2=O)cn1 [Compound 172]
17 | 80 nM | 28 nM | CC(C)n1cc(Nc2cc(-c3ccnc(-n4ccn5c6c(cc5c4=O)CC(C)(C)C6)c3CO)cn(C)c2=O)cn1 [Compound 173]
18 | 2 nM | 44 nM | CCCn1cc(Nc2cc(-c3ccnc(-n4ccn5c6c(cc5c4=O)CC(C)(C)C6)c3CO)cn(C)c2=O)cn1 [Compound 174]
19 | 71 nM | 40 nM | COCCn1cc(Nc2cc(-c3ccnc(-n4ccn5c6c(cc5c4=O)CC(C)(C)C6)c3CO)cn(C)c2=O)cn1 [Compound 175]

Row | IC50 (BTK recombinant protein) | IC50 [1] | SMILES
20 | 3 nM | 16 nM | Cn1cc(-c2ccnc(-n3ccn4c5c(c(F)c4c3=O)CCCC5)c2CO)cc(Nc2cc3n(n2)CCOC3)c1=O [Compound 176]
21 | 6 nM | 21 nM | COCCN1CCn2nc(Nc3cc(-c4ccnc(-n5ccn6c(c(F)c7ccccc76)c5=O)c4CO)cn(C)c3=O)cc2C1 [Compound 177]
22 | 6 nM | 12 nM | Cn1cc(-c2ccnc(-n3ccn4c(c(F)c5ccccc54)c3=O)c2CO)cc(Nc2cc3n(n2)CCN(C2COC2)C3)c1=O [Compound 178]
23 | 16 nM | 84 nM | CCn1cc(Nc2cc(-c3ccnc(-n4ccn5c6c(c(F)c5c4=O)CCCC6)c3CO)cn(C)c2=O)cn1 [Compound 180]
24 | 12 nM | 38 nM | CC1Cc2cc3c(=O)n(-c4nccc(-c5cc(Nc6cc7n(n6)CCOC7)c(=O)n(C)c5)c4CO)ccn3c2C1 (stereo not shown) [Compound 181]
25 | 25 nM | 67 nM | Cn1cc(-c2ccnc(-n3ccn4c(c(F)c5ccccc54)c3=O)c2CO)cc(Nc2ccc(C3CN(C4COC4)C3)cn2)c1=O [Compound 183]
26 | 77 nM | 80 nM | C[C@H]1CN(C2COC2)CCN1c1ccc(Nc2cc(-c3ccnc(-n4cnn5c6c(cc5c4=O)CCCC6)c3CO)cn(C)c2=O)nc1 [Compound 184]
27 | 13 nM | 13 nM | C[C@H]1CN(C(CO)CO)CCN1c1ccc(Nc2cc(-c3ccnc(-n4ccn5c6c(cc5c4=O)CC(C)(C)C6)c3CO)cn(C)c2=O)nc1 [Compound 185]
28 | 14 nM | 10 nM | C[C@H]1CN(C2COC2)CCN1c1ccc(Nc2cc(-c3ccnc(-n4ncn5c6c(c(F)c5c4=O)CCCC6)c3CO)cn(C)c2=O)nc1 [Compound 186]
29 | 41 nM | 39 nM | Cc1ccc2c(c1)cc1c(=O)n(-c3nccc(-c4cc(Nc5ccc(N6CCN(C7COC7)C[C@@H]6C)cn5)c(=O)n(C)c4)c3CO)ccn12 [Compound 188]
30 | 39 nM | 51 nM | C[C@H]1COCCN1c1ccc(Nc2cc(-c3ccnc(-n4ccn5c6c(cc5c4=O)CCC6)c3CO)cn(C)c2=O)nc1 [Compound 189]
31 | 29 nM | 40 nM | C[C@H]1CN(C2COC2)CCN1c1ccc(Nc2cc(-c3ccnc(-n4cnn5c6c(c(F)c5c4=O)CCCC6)c3CO)cn(C)c2=O)nc1 [Compound 190]
32 | 11 nM | 10 nM | Cn1cc(-c2ccnc(-n3ncn4c5c(cc4c3=O)CC(C)(C)C5)c2CO)cc(Nc2ccc(N3CCN(C4COC4)CC3(C)C)cn2)c1=O [Compound 191]
33 | 9 nM | 16 nM | Cc1cc(Nc2cc(-c3ccnc(-n4ncn5c6c(cc5c4=O)CC(C)(C)C6)c3CO)cn(C)c2=O)no1 [Compound 192]
34 | 12 nM | 6 nM | C[C@@H]1CN(c2ccc(Nc3cc(-c4ccnc(-n5ncn6c7c(cc6c5=O)CC(C)(C)C7)c4CO)cn(C)c3=O)nc2)[C@@H](C)CN1C1COC1 [Compound 193]
35 | 2 nM | 7 nM | C[C@H]1COCCN1c1ccc(Nc2cc(-c3ccnc(-n4ncn5c6c(cc5c4=O)CC(C)(C)C6)c3CO)cn(C)c2=O)nc1 [Compound 196]
36 | 4 nM | 12 nM | C[C@H]1CN(C2COC2)CCN1c1ccc(Nc2cc(-c3ccnc(-n4ccn5c6c(cc5c4=O)CC(C)(C)[C@@H]6O)c3CO)cn(C)c2=O)nc1 [Compound 198]
37 | 8 nM | 25 nM | C[C@H]1CN(C2COC2)CCN1c1ccc(Nc2cc(-c3ccnc(-n4ccn5c6c(cc5c4=O)CC(C)(C)[C@H]6O)c3CO)cn(C)c2=O)nc1 [Compound 199]
38 | 4 nM | 21 nM | Cn1cc(-c2ccnc(-n3ccn4c5c(cc4c3=O)CC(C)(C)C5)c2CO)cc(Nc2ccc(C3CCN(C4COC4)CC3)nn2)c1=O [Compound 200]
